Assays:
HDAC8 = HDAC8 (Homo sapiens, UniProt Q9BY41); test: biochemical
DnaK-ABD [1] = target: T1, DnaK-ABD (Thermus thermophilus, UniProt Q56235); details: 150 mM 15NH4Cl, 5 mM MgCl2, 0.5 mM ADP, 50 mM phosphate, 1 mM DTT, pH 7.5; two sites; 15N-labelled compound
DnaK-ABD [2] = target: T1, DnaK-ABD; test: 1H, […] HSQC NMR of bound […]NH4+ (indirect); format: binding; details: 0.5 mM ADP added together with 50 mM phosphate; 150 mM 15NH4Cl, 5 mM MgCl2, 1 mM DTT, pH 7.5

T1 sequence (Q56235 1-381): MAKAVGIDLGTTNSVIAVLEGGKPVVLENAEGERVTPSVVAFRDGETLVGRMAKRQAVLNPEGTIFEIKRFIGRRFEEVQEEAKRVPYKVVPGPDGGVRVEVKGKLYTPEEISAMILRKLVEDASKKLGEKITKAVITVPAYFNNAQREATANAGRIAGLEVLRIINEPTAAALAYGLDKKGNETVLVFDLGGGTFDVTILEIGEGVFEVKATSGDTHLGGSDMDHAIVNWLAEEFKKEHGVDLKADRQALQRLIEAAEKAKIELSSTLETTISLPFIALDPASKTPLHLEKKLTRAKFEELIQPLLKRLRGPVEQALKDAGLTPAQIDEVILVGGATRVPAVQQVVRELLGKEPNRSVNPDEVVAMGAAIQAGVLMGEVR
Chain of HDAC8 (Q9BY41 whole entry): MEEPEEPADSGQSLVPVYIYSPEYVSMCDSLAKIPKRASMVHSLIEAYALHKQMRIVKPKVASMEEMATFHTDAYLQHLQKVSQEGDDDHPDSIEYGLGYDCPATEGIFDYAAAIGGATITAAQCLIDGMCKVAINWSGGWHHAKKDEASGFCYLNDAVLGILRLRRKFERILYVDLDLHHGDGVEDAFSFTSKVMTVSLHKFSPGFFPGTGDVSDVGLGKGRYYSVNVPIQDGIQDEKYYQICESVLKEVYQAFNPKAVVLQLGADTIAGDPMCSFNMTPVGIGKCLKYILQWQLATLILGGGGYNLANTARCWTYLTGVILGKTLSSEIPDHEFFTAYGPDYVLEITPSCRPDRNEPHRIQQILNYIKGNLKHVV

| Kd (HDAC8) | Structure (SMILES) | 1H,15N HSQC NMR and 15N-edited NOESY (DnaK-ABD [1]) | 1H,15N HSQC NMR of bound 15NH4+ (indirect) (DnaK-ABD [2]) |
| --- | --- | --- | --- |
| 13 ± 8 mM | N [15NH4+] | addition of ADP and Pi resulted in the appearance of two clear peaks | – |
| – | Nc1ncnc2c1ncn2[C@@H]1O[C@H](COP(=O)(O)OP(=O)(O)O)[C@@H](O)[C@H]1O [ADP] | – | binding of ADP and Pi protects the ammonium protons from solvent exchange |
